The results in this text go back to US10316017B2, “COT modulators and methods of use thereof” (Gilead Sciences, Inc., priority 2015, dated 2019).

Where two headings read alike, the source gives them in different places.

Experiment [1] has as its system TNFα production in LPS-stimulated human monocytes. As to the kind of experiment: Cot Monocyte TNFα Cell Based Assay. Conditions: Homo sapiens, Monocyte, read-out: EC50 TNF. The gist of the method:
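TNFα release quantified by two-antibody TR-FRET, normalised to unstimulated (0%) and LPS-stimulated (100%) wells. Cells got a 1 h compound exposure at 37° C in 0.5% DMSO before 4 h challenge with 50 pg/ml LPS, at 5,000 cells/well.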

The target of experiment [2] is T1, human Cot catalytic domain (30-397 amino acids) (Homo sapiens, UniProt P41279).
T1 construct: Purified recombinant human Cot catalytic domain (30-397 amino acids) was purchased from Cama Biosciences; purchased Cama Biosciences (so in the source)
As to the kind of experiment: High Throughput Cot Biochemical Assay (KinEASE TR-FRET). To be noted: read-out: IC50 HTRF. The gist of the method:
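TR-FRET (KinEASE) read-out: Eu-labelled phospho-specific antibody binds XL665-tagged STK3 peptide (1 μM) phosphorylated by 5 nM human Cot kinase domain (residues 30-397). Reaction at 400 μM ATP, pH 7.0 MOPS buffer with 10 mM MgOAc, 1 mM DTT and 0.1% DMSO.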
A general note: In TR-FRET formats the signal depends on donor and acceptor labels being close together.

[3] abbreviates: TNFα in LPS-stimulated human monocytes.
[4] abbreviates: Cot biochemical HTRF (KinEASE TR-FRET) assay.
[5] abbreviates: Cot KinEASE TR-FRET (HTRF) biochemical assay, 400 μM ATP.
Where [6] appears, read: LPS-stimulated human monocytes, TNFα TR-FRET.
[7] abbreviates: Cot KinEASE TR-FRET, 400 μM ATP.

T1 sequence (P41279 30-397): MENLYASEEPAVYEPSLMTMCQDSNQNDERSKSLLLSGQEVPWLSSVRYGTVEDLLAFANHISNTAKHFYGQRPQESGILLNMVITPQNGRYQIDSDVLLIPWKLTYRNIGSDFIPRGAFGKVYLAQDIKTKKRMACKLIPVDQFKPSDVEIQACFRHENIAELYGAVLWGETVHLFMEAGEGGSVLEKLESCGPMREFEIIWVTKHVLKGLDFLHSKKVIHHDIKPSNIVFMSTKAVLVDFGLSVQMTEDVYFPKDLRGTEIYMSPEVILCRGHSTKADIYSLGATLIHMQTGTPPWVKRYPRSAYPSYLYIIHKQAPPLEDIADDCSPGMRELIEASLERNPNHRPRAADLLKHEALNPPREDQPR

`N#Cc1cnc2c(Cl)cc(N[C@@H](c3cccc(N4CCCS4(=O)=O)c3)c3c[nH]nn3)cc2c1Nc1ccc(Cl)c(Cl)c1F` [Example 528, (S)-8-chloro-4-((3,4-dichloro-2-fluorophenyl)amino)-6-(((3-(1,1-dioxidoisothiazolidin-2-yl)phenyl)(1H-1,2,3-triazol-4-yl)methyl)amino)quinoline-3-carbonitrile]: in experiment [1] (setting [3]), the EC50 is 830 nM. For the same compound, in experiment [2] (setting [4]), the IC50 amounted to 54 nM.

As for `CC(C)(C)N1CCC(n2cc([C@@H](Nc3cc(Cl)c4ncc(C#N)c(Nc5cscc5Cl)c4c3)c3ccccc3)nn2)CC1` [Example 612, (S)-6-(((1-(1-(tert-butyl)piperidin-4-yl)-1H-1,2,3-triazol-4-yl)(phenyl)methyl)amino)-8-chloro-4-((4-chlorothiophen-3-yl)amino)quinoline-3-carbonitrile], the EC50 in experiment [1] (setting [3]) was 2020 nM. Also, the IC50 in experiment [2] (setting [4]) came out at 84 nM.

As for `CNC(=O)c1cccc([C@H](Nc2cc(Cl)c3ncc(C#N)c(Nc4ccc(F)c(Cl)c4)c3c2)c2cn(C3CCN(C(C)(C)C)CC3)nn2)c1` [Example 690, (S)-3-((1-(1-(tert-butyl)piperidin-4-yl)-1H-1,2,3-triazol-4-yl)((8-chloro-4-((3-chloro-4-fluorophenyl)amino)-3-cyanoquinolin-6-yl)amino)methyl)-N-methylbenzamide], the EC50 in experiment [1] (setting [3]) was 317 nM. The IC50 in experiment [2] (setting [4]) came to 2 nM.

For `[2H][C@](Nc1cc(Cl)c2ncc(C#N)c(N[C@@H]3C[C@H]3C(F)(F)F)c2c1)(c1ccc(F)cc1)c1cn(C2CC2)nn1` [Example 154, 8-chloro-6-(((S)-(1-cyclopropyl-1H-1,2,3-triazol-4-yl)(4-fluorophenyl)methyl-d)amino)-4-(((1R,2R)-2-(trifluoromethyl)cyclopropyl)amino)quinoline-3-carbonitrile], the EC50 in experiment [1] (setting [3]) came out at 576 nM. In addition, in experiment [2] (setting [5]), the half-maximal inhibitory concentration (IC50) was found to be 39 nM.

For the compound `N#Cc1cnc2c(Cl)cc(N[C@@H](c3ccccc3)c3cn(C4[C@H]5CNC[C@@H]45)nn3)cc2c1Nc1ccc(F)c(Cl)c1` (stereo partly drawn) [Example 529, 6-(((S)-(1-((1R,5S,6s)-3-azabicyclo[3.1.0]hexan-6-yl)-1H-1,2,3-triazol-4-yl)(phenyl)methyl)amino)-8-chloro-4-((3-chloro-4-fluorophenyl)amino) quinoline-3-carbonitrile], the EC50 in experiment [1] (setting [3]) was 71 nM. Moreover, in experiment [2] (setting [4]), the IC50 is 2 nM.

In the case of `Cc1c([C@H](Nc2cc(C#N)c3ncc(C#N)c(NCC(C)(C)C)c3c2)c2cn(C3(C(F)(F)F)CC3)nn2)cccc1-n1nccn1` [Example 1044, (S)-6-(((2-methyl-3-(2H-1,2,3-triazol-2-yl)phenyl)(1-(1-(trifluoromethyl)cyclopropyl)-1H-1,2,3-triazol-4-yl)methyl)amino)-4-(neopentylamino)quinoline-3,8-dicarbonitrile], the EC50 in experiment [1] (setting [6]) is 214 nM. Also, the IC50 in experiment [2] (setting [7]) was found to be 8 nM.

As to `CC[C@@H](Nc1c(C#N)cnc2c(C#N)cc(N[C@@H](c3cccc(-c4ncco4)c3)c3cn(C4CC4)nn3)cc12)c1ccccc1` [Example 941, 6-(((S)-(1-cyclopropyl-1H-1,2,3-triazol-4-yl) (3-(oxazol-2-yl)phenyl)methyl)amino)-4-(((R)-1-phenylpropyl)amino) quinoline-3,8-dicarbonitrile], in experiment [1] (setting [6]), the EC50 worked out at 52 nM. In experiment [2] (setting [7]), the IC50 worked out at 1 nM.

Regarding `CC[C@@H](Nc1c(C#N)cnc2c(Cl)cc(N[C@@H](c3cccc(N(C)C(C)=O)c3)c3cn(C4CCN(C(C)(C)C)CC4)nn3)cc12)c1ccccc1` [Example 564, N-(3-((S)-(1-(1-(tert-butyl)piperidin-4-yl)-1H-1,2,3-triazol-4-yl)((8-chloro-3-cyano-4 (((R)-1-phenylpropyl)amino)quinolin-6-yl)amino)methyl)phenyl)-N-methylacetamide], the EC50 in experiment [1] (setting [3]) was 68 nM. Besides, the IC50 in experiment [2] (setting [4]) amounted to 1 nM.

As to `[2H][C@](Nc1cc(Cl)c2ncc(C#N)c(NC(C)(C)CC)c2c1)(c1ccc(F)cc1)c1cn(C2CC2)nn1` [Example 282, (S)-8-chloro-6-(((1-cyclopropyl-1H-1,2,3-triazol-4-yl)(4-fluorophenyl)methyl-d)amino)-4-(tert-pentylamino) quinoline-3-carbonitrile], in experiment [1] (setting [3]), the EC50 is 525 nM. For the same compound, the IC50 in experiment [2] (setting [5]) amounted to 39 nM.

In the case of `CC(C)(C)CNc1c(C#N)cnc2c(C#N)cc(N[C@H](c3cn(C4(C(N)=O)CCCC4)nn3)c3ccccc3Cl)cc12` [Example 1020, (S)-1-(4-((2-chlorophenyl) ((3,8-dicyano-4-(neopentylamino)quinolin-6-yl)amino)methyl)-1H-1,2,3-triazol-1-yl)cyclopentane-1-carboxamide], the EC50 in experiment [1] (setting [6]) was 161 nM. In addition, the IC50 in experiment [2] (setting [7]) turned out to be 6 nM.

In the case of `N#Cc1cnc2c(Cl)cc(N[C@@H](c3ccc(Cl)cc3)c3cn(C4CCN(C5COC5)CC4)nn3)cc2c1Nc1ccc(F)c(F)c1` [Example 723, (S)-8-chloro-6-(((4-chlorophenyl)(1-(1-(oxetan-3-yl)piperidin-4-yl)-1H-1,2,3-triazol-4-yl)methyl)amino)-4-((3,4-difluorophenyl)amino)quinoline-3-carbonitrile], in experiment [1] (setting [3]), the EC50 stood at 1300 nM. Further, the IC50 in experiment [2] (setting [4]) was 217 nM.

Take `CC[C@@H](Nc1c(C#N)cnc2c(Cl)cc(N[C@H](c3c[nH]nn3)c3ccccc3Cl)cc12)c1ccccc1` [Example 533, 8-chloro-6-(((S)-(2-chlorophenyl)(1H-1,2,3-triazol-4-yl)methyl)amino)-4-(((R)-1-phenylpropyl)amino) quinoline-3-carbonitrile]: in experiment [1] (setting [3]), the EC50 stood at 660 nM. For the same compound, the IC50 in experiment [2] (setting [4]) was found to be 73 nM.

For the compound `Cc1c(-c2cnco2)cccc1[C@H](Nc1cc(Cl)c2ncc(C#N)c(NCC(C)(C)C)c2c1)c1cn(C2(C(F)F)CC2)nn1` [Example 1167, (S)-8-chloro-6-(((1-(1-(difluoromethyl)cyclopropyl)-1H-1,2,3-triazol-4-yl)(2-methyl-3-(oxazol-5-yl)phenyl)methyl)amino)-4-(neopentylamino)quinoline-3-carbonitrile], the EC50 in experiment [1] (setting [6]) is 62 nM. For the same compound, the IC50 in experiment [2] (setting [7]) came to 5 nM.

Regarding `COc1ccc(Nc2c(C#N)cnc3c(Cl)cc(N[C@@H](c4ccccc4)c4c[nH]nn4)cc23)cn1` [Example 490, (S)-8-chloro-4-((6-methoxypyridin-3-yl)amino)-6-((phenyl (1H-1,2,3-triazol-4-yl)methyl)amino) quinoline-3-carbonitrile], the EC50 in experiment [1] (setting [3]) is 3190 nM. In addition, the IC50 in experiment [2] (setting [4]) was 172 nM.

In the case of `[2H][C@@](Nc1cc(Cl)c2ncc(C#N)c(NC3CCOCC3(C)C)c2c1)(c1cn(C2CC2)nn1)c1ccccc1Cl` (stereo partly drawn) [Example 141, 8-chloro-6-(((S)-(2-chlorophenyl)(1-cyclopropyl-1H-1,2,3-triazol-4-yl)methyl-d)amino)-4-((3,3-dimethyltetrahydro-2H-pyran-4-yl)amino) quinoline-3-carbonitrile], the EC50 in experiment [1] (setting [3]) amounted to 72 nM. Further, the IC50 in experiment [2] (setting [5]) is 5 nM.

`[2H][C@](Nc1cc(Cl)c2ncc(C#N)c(NC[C@@H](C)c3ccccc3)c2c1)(c1ccc(F)cc1)c1cn(C2CC2)nn1` [Example 226, 8-chloro-6-(((S)-(1-cyclopropyl-1H-1,2,3-triazol-4-yl)(4-fluorophenyl)methyl-d)amino)-4-(((S)-2-phenylpropyl)amino) quinoline-3-carbonitrile]: the 50% effective concentration (EC50) in experiment [1] (setting [3]) was determined as 606 nM. Also, in experiment [2] (setting [5]), the IC50 amounted to 16 nM.

The term EC50 denotes the concentration giving half of the maximal effect. One may read the IC50 as the concentration at which inhibition is half-maximal.
